Results from patent US20090143279A1 (priority 2007, published 2009).
Read-outs that look alike come from different tables or passages of the source.

Assays:
mtOXPHOS transcripts = assay type: cell-based, mouse
reactive oxygen species = assay type: cell-based, mouse
nuOXPHOS transcripts = assay type: cell-based, mouse
[1] = tested on: cellular dehydrogenase activity
OXPHOS gene expression = assay type: cell-based, mouse
cytochrome c = assay type: cell-based, mouse
[2] = tested on: mitochondrial membrane potential; assay type: cell-based, mouse
[3] = composite Z-score vs mock-treated (DMSO) wells, Conc 20 μM
[4] = composite Z-score vs DMSO wells, Conc 20 μM
[5] = normalized composite Z-score vs mock-treated (DMSO) wells, Conc 20 μM
[6] = composite Z-score vs DMSO, Conc 20 μM
[7] = Conc 20 μM, normalized score vs mock-treated (DMSO) wells

Question: How did the mitoOX (mtOXPHOS transcripts; [3]) turn out when `CC1=CC(=O)[C@H]2C(C)(C)CCC[C@]2(C)[C@@]1(O)CCc1ccoc1` [solidagenone] was run?
Answer: 0.441

Question: What about the ROS (reactive oxygen species; [3]) of the same compound?
Answer: 1.734

Question: And the nucOX (nuOXPHOS transcripts; [3])?
Answer: −0.023

Question: And the MTT [1, 3]?
Answer: 0.084

Question: And the GE-HTS (OXPHOS gene expression; [3])?
Answer: 0.127

Question: What about the cyt c (cytochrome c; [3]) of the same compound?
Answer: −0.061

Question: What about the Viability (C2C12 myotubes; [3]) of the same compound?
Answer: −0.409

Question: What about the ΔΨm [2, 3] of the same compound?
Answer: −0.242

Question: What does the source list for `CC(=O)N[C@@H](CC(=O)N[C@@H](CCC(=O)O)C(=O)O)C(=O)O` [spaglumic acid]?
Answer: mitoOX (mtOXPHOS transcripts; [4]): −0.284; ROS (reactive oxygen species; [4]): 0.615; nucOX (nuOXPHOS transcripts; [4]): 0.307; MTT [1, 4]: −0.779; GE-HTS (OXPHOS gene expression; [4]): 0.120; cyt c (cytochrome c): 0.600; cyt c (cytochrome c; [4]): 0.191; Viability (C2C12 myotubes; [4]): −0.009; ΔΨm [2, 4]: −0.685

Question: Which mitoOX (mtOXPHOS transcripts; [3]) does the source give for `COc1cc2ccc(=O)oc2c2ccoc12` [sphondin] here?
Answer: −0.666

Question: What about the ROS (reactive oxygen species; [3]) of the same compound?
Answer: 1.692

Question: What about the nucOX (nuOXPHOS transcripts; [3]) of the same compound?
Answer: −0.605

Question: And the MTT [1, 3]?
Answer: −0.661

Question: What about the GE-HTS (OXPHOS gene expression; [3]) of the same compound?
Answer: −0.684

Question: What about the cyt c (cytochrome c; [3]) of the same compound?
Answer: 0.091

Question: What about the Viability (C2C12 myotubes; [3]) of the same compound?
Answer: −0.790

Question: What about the ΔΨm [2, 3] of the same compound?
Answer: 0.136

Question: Which results are given for `CC[C@H](C=C[C@@H](C)[C@H]1CC[C@H]2[C@@H]3CCC4=CC(=O)CC[C@]4(C)[C@H]3CC[C@]12C)C(C)C` [stigmasta-4,22-dien-3-one]?
Answer: mitoOX (mtOXPHOS transcripts): −0.118; ROS (reactive oxygen species): 0.550; nucOX (nuOXPHOS transcripts): −0.094; MTT [1]: −1.294; GE-HTS (OXPHOS gene expression): −0.138; cyt c (cytochrome c): 0.434; Viability (C2C12 myotubes): 0.023; ΔΨm [2]: −0.299

Question: How did the mitoOX (mtOXPHOS transcripts) turn out when `C[C@]12CC[C@H]3[C@@H](CC[C@]4(O)C[C@@H](O)CC[C@]34C=O)[C@@]1(O)CC[C@@H]2C1=CC(=O)OC1` [strophanthidin] was run?
Answer: −0.190

Question: What about the mitoOX (mtOXPHOS transcripts; [4]) of the same compound?
Answer: −0.231

Question: What about the mitoOX (mtOXPHOS transcripts; [5]) of the same compound?
Answer: −1.094

Question: What about the ROS (reactive oxygen species) of the same compound?
Answer: 0.947

Question: And the ROS (reactive oxygen species; [4])?
Answer: 1.582

Question: And the ROS (reactive oxygen species; [5])?
Answer: 1.036

Question: What about the nucOX (nuOXPHOS transcripts) of the same compound?
Answer: −0.729

Question: And the nucOX (nuOXPHOS transcripts; [4])?
Answer: −0.222

Question: And the nucOX (nuOXPHOS transcripts; [5])?
Answer: −0.525

Question: And the MTT [1]?
Answer: −0.908

Question: And the MTT [1, 4]?
Answer: −0.828

Question: What about the MTT [1, 5] of the same compound?
Answer: −1.573

Question: What about the GE-HTS (OXPHOS gene expression) of the same compound?
Answer: −0.590

Question: What about the GE-HTS (OXPHOS gene expression; [4]) of the same compound?
Answer: −0.232

Question: What about the GE-HTS (OXPHOS gene expression; [5]) of the same compound?
Answer: −0.789

Question: And the cyt c (cytochrome c)?
Answer: 0.287

Question: What about the cyt c (cytochrome c; [4]) of the same compound?
Answer: 1.100

Question: And the cyt c (cytochrome c; [5])?
Answer: 0.687

Question: What about the Viability (C2C12 myotubes) of the same compound?
Answer: −0.448

Question: And the Viability (C2C12 myotubes; [4])?
Answer: 0.028

Question: And the Viability (C2C12 myotubes; [5])?
Answer: −1.016

Question: What about the ΔΨm [2] of the same compound?
Answer: −0.175

Question: What about the ΔΨm [2, 4] of the same compound?
Answer: −1.126

Question: What about the ΔΨm [2, 5] of the same compound?
Answer: −0.481

Question: Which results are given for `C[C@]12CC[C@H]3[C@@H](CC[C@]4(O)C[C@@H](O)CC[C@]34C(=O)O)[C@@]1(O)CC[C@@H]2C1=CC(=O)OC1` [strophanthidinic acid]?
Answer: mitoOX (mtOXPHOS transcripts; [5]): −0.726; ROS (reactive oxygen species; [5]): −0.059; nucOX (nuOXPHOS transcripts; [5]): −0.400; MTT [1, 5]: −1.651; GE-HTS (OXPHOS gene expression; [5]): −0.553; cyt c (cytochrome c; [5]): 0.166; Viability (C2C12 myotubes; [5]): −0.745; ΔΨm [2, 5]: −0.875

Question: Which results are given for `[H]/N=C(/N)NS(=O)(=O)c1ccc(N)cc1` [sulfaguanidine]?
Answer: mitoOX (mtOXPHOS transcripts; [4]): −0.556; ROS (reactive oxygen species; [4]): 0.902; nucOX (nuOXPHOS transcripts; [4]): −0.522; MTT [1, 4]: −0.421; GE-HTS (OXPHOS gene expression; [4]): −0.571; cyt c (cytochrome c; [4]): 0.147; Viability (C2C12 myotubes; [4]): −0.691; ΔΨm [2, 4]: 0.217

Question: What does the source list for `Cc1noc(NS(=O)(=O)c2ccc(N)cc2)c1C` [sulfisoxazole]?
Answer: mitoOX (mtOXPHOS transcripts; [4]): −0.187; ROS (reactive oxygen species; [4]): −0.095; nucOX (nuOXPHOS transcripts; [4]): 0.239; MTT [1, 4]: −0.835; GE-HTS (OXPHOS gene expression; [4]): 0.103; cyt c (cytochrome c): 0.001; cyt c (cytochrome c; [4]): 0.649; Viability (C2C12 myotubes; [4]): −1.895; ΔΨm [2, 4]: −0.543

Question: `COC(=O)C(C)c1ccc(C(=O)c2cccs2)cc1` (stereo not shown) [suprofen methyl ester] was tested. Which mitoOX (mtOXPHOS transcripts; [6]) did it give?
Answer: −0.048

Question: What about the ROS (reactive oxygen species; [6]) of the same compound?
Answer: 0.591

Question: What about the nucOX (nuOXPHOS transcripts; [6]) of the same compound?
Answer: 0.216

Question: And the MTT [1, 6]?
Answer: −1.160

Question: What about the GE-HTS (OXPHOS gene expression; [6]) of the same compound?
Answer: 0.139

Question: And the cyt c (cytochrome c; [6])?
Answer: −0.191

Question: What about the Viability (C2C12 myotubes; [6]) of the same compound?
Answer: 0.611

Question: And the ΔΨm [2, 6]?
Answer: 0.577

Question: How did the mitoOX (mtOXPHOS transcripts; [3]) turn out when `COC(=O)[C@H](O)[C@H]1C(C)(C)[C@H](OC(C)=O)[C@@H]2CC3=C4CC(=O)O[C@@H](c5ccoc5)[C@]4(C)CC[C@@H]3[C@@]1(C)C2=O` [swietenolide-3-acetate] was run?
Answer: −0.838

Question: What about the ROS (reactive oxygen species; [3]) of the same compound?
Answer: 0.237

Question: What about the nucOX (nuOXPHOS transcripts; [3]) of the same compound?
Answer: −1.093

Question: And the MTT [1, 3]?
Answer: −0.776

Question: And the GE-HTS (OXPHOS gene expression; [3])?
Answer: −1.057

Question: What about the cyt c (cytochrome c; [3]) of the same compound?
Answer: 0.668

Question: And the Viability (C2C12 myotubes; [3])?
Answer: −0.503

Question: And the ΔΨm [2, 3]?
Answer: 1.006

Question: Which “mitoOX (composite Z-score)” value (mtOXPHOS transcripts; [7]) does the source give for `O=C(O)Cc1cc(I)c(Oc2cc(I)c(O)c(I)c2)c(I)c1` [tetrac] here?
Answer: 0.898

Question: And the “ROS (composite Z-score)” value (reactive oxygen species; [7])?
Answer: 2.718

Question: What about the “nucOX (composite Z-score)” value (nuOXPHOS transcripts; [7]) of the same compound?
Answer: 0.714

Question: What about the “MTT (composite Z-score)” value [1, 7] of the same compound?
Answer: −0.677

Question: And the “GE-HTS (composite Z-score)” value (OXPHOS gene expression; [7])?
Answer: 0.811

Question: And the “cyt c (composite Z-score)” value (cytochrome c; [7])?
Answer: 0.674

Question: What about the “Viability (composite Z-score)” value (C2C12 myotubes; [7]) of the same compound?
Answer: 1.361

Question: What about the “ΔΨm (composite Z-score)” value [2, 7] of the same compound?
Answer: −1.457
